Legend:
isolated trachea = assay: Allergen (OA)-induced contraction of isolated trachea from sensitized guinea pigs; parameters: species or system guinea pig; settings: 20 µM compound
Protocol: The effects of a number of the compounds described herein on allergen-induced bronchoconstriction were evaluated for anti-asthma activity. The ability of a compound to inhibit allergen-induced decreases in lung function in sensitized guinea pigs in response to antigen-challenge is indicative of anti-asthma activity. In particular, the model system is useful in the evaluation of the potential effects of a compound in the treatment of the early asthmatic reaction (EAR) when severe bronchoconstriction occurs.
Guinea pigs were exposed to a nebulized solution of 1% ovalbumin (OA) in saline for 15 min. […] Tracheal rings were prepared and bathed in Krebs-Henseleit solution at 37°C and aerated with 5% CO2 in O2. Tissues were suspended under a resting tension of 2 g and isometric contractions were measured using force-displacement transducers coupled to a polygraph. Tissues were incubated with each compound or 0.1% dimethylsulfoxide (as a control) for 20 min, after which increasing concentrations of OA (0.001 - 100 µg/ml) were added to the tissue. After the final concentration of OA was added and the response was recorded, the tissues were stimulated with 100 µM methacholine which caused maximum contraction of the trachea. The magnitude of the contraction induced by OA in the presence of each compound was expressed as a percentage of the maximum contraction obtained using methacholine (100 µM).

rabbit platelets = assay: Inhibition of PAF-induced aggregation of rabbit platelets; format: cell-based; settings: 80 µM compound, 5 min preincubation, PAF-induced aggregation (title: 0.1 nM PAF) vs DMSO alone; for inhibition at 80 µM: Oryctolagus cuniculus, Platelet
Protocol: The assay system used to evaluate the ability of compounds to inhibit the aggregation of platelets in response to exogenous stimuli is indicative of anti-thrombotic or thrombolytic activity.
Platelets were isolated from rabbit blood and prepared at a density of 2.4 x 10^8 cells/ml in Tyrodes buffer (pH 7.2) containing Ca^2+. Platelets were incubated with each compound for 5 min at 37°C prior to stimulation. Platelets were stimulated with 1 nM platelet activating factor (PAF; EC75) in the presence of each of the compounds and aggregation was monitored for 5 min. Compounds were solubilized in dimethylsulfoxide (DMSO) and aggregation was measured as a percentage of the response to 1 nM PAF obtained in the presence of the appropriate concentration of DMSO. The degree of inhibition caused by each sample was calculated using the control response in the presence of DMSO equal to 100%.

[1] = tested on: ileum from sensitized guinea pigs; assay: Antigen (ovalbumin)-induced contraction of isolated ileum from sensitized guinea pigs; parameters: species or system guinea pig; settings: each 30 µM, 20 min; 100 µg/ml ovalbumin; mean, n=3-4, vs DMSO alone
Protocol: The ability of compounds to inhibit allergen-induced contraction of ileum from sensitized animals is indicative of antiallergic activity. Sensitized guinea pig ileum is particularly useful in measuring the immediate allergic response.
The guinea pig ileum has been used to evaluate the ability of compounds to inhibit allergen-induced histamine and mediator release causing smooth muscle contraction. Guinea pigs were sensitized by an intraperitoneal injection of 100 mg ovalbumin and an intramuscular injection of 50 mg ovalbumin on day 0, followed by a second intramuscular injection of 50 mg ovalbumin on day 1. […] Segments of ileum were prepared and suspended, with muscle contractions being measured in the longitudinal plane, in Tyrode's buffer at 37°C and aerated with 5% CO2 in O2. Tissues were suspended under a resting tension of 2 grams and isometric contractions were measured using force-displacement transducers coupled to a polygraph. Tissues were stimulated with 3 µM histamine 3 times to ensure reproducible contractions were obtained. Tissues were then incubated with each compound (30 µM) or 0.15% dimethylsulphoxide (DMSO) as a control, for 20 min, after which time the tissues were challenged with 100 µg/ml ovalbumin. The magnitude of the contraction induced by OA in the presence of each compound was expressed as a percentage of the contraction obtained to 3 µM histamine. […]

[2] = tested on: rat mast cell line (RBL-2H3); assay: Antigen-induced release of hexosaminidase from passively sensitized rat mast cells; format: cell-based; settings: Table 3; each 25 µM; vs DMSO alone
Protocol: The anti-allergic effects of various polyhydroxylated steroids of the present invention were evaluated by measuring their effect on antigen-induced secretion of hexosaminidase from a passively sensitized rat mast cell line (RBL-2H3) and a murine mast cell line (MC/9). The ability of agents to inhibit the release of mast cell granule contents, e.g., histamine and hexosaminidase, is indicative of anti-allergy and/or anti-asthma activity.
Hexosaminidase is released from the mast cell granule along with histamine and other mediators during antigen challenge. RBL-2H3 and MC/9 cells were grown in culture and passively sensitized to dinitrophenol (DNP) using anti-human-DNP (IgE). […] Aliquots of the supernatant were removed and used to measure the amount of hexosaminidase released during challenge with the antigen. […] The effect of each compound was determined as a percentage of the antigen-induced response (minus background release) obtained in the presence of DMSO alone, as set forth in Tables 2 and 3. These values were used to determine the degrees of inhibition of antigen-induced hexosaminidase release from the cells.

Compound	percentage contraction compared to 100µM methacholine (100%) (isolated trachea; Study 1, 0.001 µg/ml OA) [%]	percentage contraction compared to 100µM methacholine (100%) (isolated trachea; Study 1, 0.003 µg/ml OA) [%]	percentage contraction compared to 100µM methacholine (100%) (isolated trachea; Study 1, 0.01 µg/ml OA) [%]	percentage contraction compared to 100µM methacholine (100%) (isolated trachea; Study 1, 0.03 µg/ml OA) [%]	percentage contraction compared to 100µM methacholine (100%) (isolated trachea; Study 1, 0.1 µg/ml OA) [%]	percentage contraction compared to 100µM methacholine (100%) (isolated trachea; Study 1, 0.3 µg/ml OA) [%]	percentage contraction compared to 100µM methacholine (100%) (isolated trachea; Study 1, 1.0 µg/ml OA) [%]	percentage contraction compared to 100µM methacholine (100%) (isolated trachea; Study 1, 3.0 µg/ml OA) [%]	percentage contraction compared to 100µM methacholine (100%) (isolated trachea; Study 1, 10.0 µg/ml OA) [%]	percentage contraction compared to 100µM methacholine (100%) (isolated trachea; Study 1, 30.0 µg/ml OA) [%]	inhibition at 80 µM (rabbit platelets) [%]	Percentage Inhibition [1] [%]	percentage contraction compared to 100µM methacholine (100%) (isolated trachea; Study 2, 0.01 µg/ml OA) [%]	percentage contraction compared to 100µM methacholine (100%) (isolated trachea; Study 2, 0.1 µg/ml OA) [%]	percentage contraction compared to 100µM methacholine (100%) (isolated trachea; Study 2, 1 µg/ml OA) [%]	percentage contraction compared to 100µM methacholine (100%) (isolated trachea; Study 2, 10 µg/ml OA) [%]	percentage contraction compared to 100µM methacholine (100%) (isolated trachea; Study 2, 100 µg/ml OA) [%]	%Inhibition at 80 µM (rabbit platelets) [%]	Percentage Inhibition (mean) RBL-2H3 Cells [2] [%]
C[C@]12CC[C@@H](O)[C@H](O)C1[C@@H](O)[C@H](O)C1C2CC[C@]2(C)C(=O)CCC12 (some centres unmarked) [Compound 145]	0.8	6.2	5.9	7.6	8.3	13.6	14.8	20.0	28.0	31.0									
C[C@]12CC[C@@H](O)[C@H](O)[C@@H]1[C@@H](O)[C@H](O)[C@@H]1[C@@H]2CC[C@]2(C)[C@@H](O)CC[C@@H]12 [Compound 241, 3α,4β,6α,7β,17β-pentahydroxy-5α-androstane]	8.5	12.6	17.1	25.8	31.0	33.4	36.3	34.4	35.0	37.0	93.1								
CC[C@H]1CCC2C3C(CC[C@@]21C)[C@@]1(C)CC[C@@H](O)CC1[C@@H](O)[C@@H]3O (some centres unmarked) [Compound 339]												36.3							
C[C@]12CC[C@@H](O)C[C@@H]1[C@@H](O)[C@H](O)[C@@H]1[C@@H]2CC[C@]2(C)C(=O)CC[C@@H]12 [Compound 326]													0	10.25	23.4	43.9	49.1		
CC(C)[C@@H]1CC(O)OC([C@@H](C)[C@H]2CC(=O)[C@@H]3[C@@H]4C(O)C(O)C5C(O)C(O)CC[C@]5(C)[C@H]4CC[C@]23C)C1 (stereo partly drawn) [Compound 165, 22,29-epoxy-3,4,6,7,29-pentahydroxy-14β-stigmastan-15-one]											51.2	27.0							
3β, 4α, 6α, 7β, 17β-pentahydroxy-5α-androstane 6,7-acetonide [Compound 246]	2.6	4.0	6.5	9.7	12.2	15.3	20.0	21.0	23.0	22.0								21	29.4
C[C@]12CC[C@@H](O)C[C@@H]1[C@@H](O)[C@H](O)[C@@H]1[C@@H]2CC[C@]2(C)[C@@H](O)CC[C@@H]12 [Compound 327]													0	0	9.1	27.3	40.9		
CC1(C)O[C@@H]2C3C(CC[C@@]4(C)C3CC[C@@H]4O[Si](C)(C)C(C)(C)C)[C@@]3(C)CC[C@H](O)[C@@H](O)C3[C@H]2O1 (some centres unmarked) [Compound 236]	1.9	5.6	5.6	5.6	11.1	16.7	39	28	39	41									

From EP1304333A2, “6,7-Oxygenated steroids and uses related thereto” (Inflazyme Pharmaceuticals, Ltd., priority 1996, dated 1998)
